From patent US8846750B2, “Pharmaceutical and food compositions for preventing or treating diabetes or obesity” (Korea Ocean Research and Development Institute, priority 2010, dated 2014)

How the values were obtained:
TC-PTP (PTPN2) = molecular target: T1, TC-PTP (PTPN2) (Homo sapiens, UniProt P17706); test: Selectivity for protein tyrosine phosphatases: TC-PTP (PTPN2); assay type: biochemical; conditions: 0, 50, 100 or 200 nM tested
T1 construct: purchased Bioneer, Korea
T1 sequence (P17706 1-415): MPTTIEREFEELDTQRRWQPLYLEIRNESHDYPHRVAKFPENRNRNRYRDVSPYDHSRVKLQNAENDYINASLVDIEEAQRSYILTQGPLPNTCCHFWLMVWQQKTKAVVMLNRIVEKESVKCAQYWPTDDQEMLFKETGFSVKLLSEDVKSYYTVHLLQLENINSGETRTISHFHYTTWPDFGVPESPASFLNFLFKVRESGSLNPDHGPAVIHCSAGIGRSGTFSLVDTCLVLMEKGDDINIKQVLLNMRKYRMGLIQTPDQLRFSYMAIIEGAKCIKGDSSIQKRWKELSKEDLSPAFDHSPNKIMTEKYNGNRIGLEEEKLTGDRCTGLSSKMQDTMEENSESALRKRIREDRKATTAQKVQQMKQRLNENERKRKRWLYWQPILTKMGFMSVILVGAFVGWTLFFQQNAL
Method: In order to examine the selectivity of sodium lobarate for protein tyrosine phosphatases, the inhibitory activities of sodium lobarate against PTP-1b, PTPN2, PTPN5, PTPN6, PTPN7 and PTPN13 were examined by spectroscopically measuring the activities of the enzymes.
Specifically, to 0.5 mg/Ml of PTP-1b, PTPN2, PTPN5, PTPN6, PTPN7 or PTPN13 (Bioneer, Korea) in protein tyrosine phosphatase buffer (20 mM Tris-Hcl, pH 8.0, 0.75 mM NaCl, 0.5 mM EDTA, 5 mM β-mercaptoethanol, 50% glycerol), 0, 50, 100 or 200 nM sodium lobarate and the substrate [pTyr1146] insulin receptor (1142-1153, Sigma, USA) were added. Then, each of the mixtures was allowed to react at room temperature for 10-30 minutes, and then malachite green-molybdate dye solution (Sigma, USA) was added thereto and reacted at room temperature for 10 minutes. After completion of the reaction with the substrate, the absorbance at 620 nm was measured. […]
Specifically, to 0.5 mg/Ml of PTP-1b, PTPN2, PTPN5, PTPN6, PTPN7 or PTPN13 (Bioneer, Korea) in protein tyrosine phosphatase buffer (20 mM Tris-Hcl, pH 8.0, 0.75 mM NaCl, 0.5 mM EDTA, 5 mM β-mercaptoethanol, 50% glycerol), 0, 50, 100 or 200 nM Lobarin and the substrate [pTyr1146] insulin receptor (1142-1153, Sigma, USA) were added. […] After completion of the reaction with the substrate, the absorbance at 620 nm was measured. […]

Solubility in water = assay type: physicochemical; conditions: dissolved in water
Method: 10 mg (22 umol) of the lobaric acid obtained in Example 1-2 was dissolved in 3 ml of acetone, and 50 ul of 1M NaHCO3 was added thereto, followed by stirring for 1-2 minutes. The solid precipitated on adding the NaHCO3 was filtered out, immediately after which it was completely concentrated by a rotary evaporator. After completion of the concentration, sodium lobarate (<10 mg) could be obtained as a white solid. Then, in order to remove excess salt from the product to increase the purity, the product was analyzed by reverse phase HPLC using Agilent Eclipse XDB-C18 column (4.6×150 mm, USA). The solvent system used in the analysis was composed of line A and line B which supplied 0.1% formic acid-containing water and 0.1% formic acid-containing acetonitrile, respectively. The elution conditions were as follows: 40% to 50% acetonitrile for 5 min; 50% to 80% acetonitrile for 15 min; and 80% to 90% acetonitrile for 10 min. The final purity was 92.1% (see FIG. 1).

Compound | inhibitory activity against TC-PTP (PTPN2) (TC-PTP (PTPN2)) | water solubility (Solubility in water)
CCCCCc1c(Oc2cc(OC)cc3c2C(=O)OC3(O)CCCC)c(O)cc(O)c1C(=O)O (stereo not drawn) [Lobarin] | no inhibitory activity | 
CCCCCc1c2c(cc(O)c1C(=O)[O-])OC(=O)c1c(cc(OC)cc1C(=O)CCCC)O2.[Na+] [sodium lobarate] |  | water-soluble
CCC/C=C1/OC(=O)c2c(Oc3c(O)cc(O)c(C(=O)O)c3CCCCC)cc(OC)cc21 [Lobarstin] | no inhibitory activity | 
